According to patent publication US20260108463A1, “NANOEMULSION FORMULATION WITH IMPROVED TACROLIMUS STABILITY AND SKIN PENETRATION” (BIOFRONTERA BIOSCIENCE GMBH, priority 2023, published 2026):
Read-outs that look alike come from different tables or passages of the source.

Assays:
[1] = Solubility test of tacrolimus by visual observation; format: physicochemical; settings: aqueous nanoemulsion BF200 (at least 90% water content), aqueous with cosolvent or surfactant or cyclodextrin
Protocol: Tacrolimus was dissolved by mechanical techniques (stirring). Determination of a complete solution of substance was based on visual observation. A complete dissolution was defined as a clear solution with no signs of cloudiness or precipitation. The pure solvents were used as reference.
Samples were prepared as explained in Example D. The compound was dissolved in 10 mM Phosphate buffer (TC2) at defined concentration (see table below). For samples TC3, TC4 and TC5 the lipid phase (intermediate) of nanoemulsion BF200 was used as solvent. In a first step, Tacrolimus was dissolved in the lipid phase, followed by the preparation of the nanoemulsion by combining the aqueous phase with the lipid phase (containing Tacrolimus). Samples TC4 and TC5 were stored at 5° C. and 25° C. for a period of 6 months.

[2] = cited from earlier work
[3] = cited from earlier work; remark: listed apart in the source

Which solubility [1] does the source give for `C=CC[C@@H]1/C=C(\C)C[C@H](C)C[C@H](OC)[C@H]2O[C@@](O)(C(=O)C(=O)N3CCCC[C@H]3C(=O)O[C@H](/C(C)=C/[C@@H]3CC[C@@H](O)[C@H](OC)C3)[C@H](C)[C@@H](O)CC1=O)[C@H](C)C[C@@H]2OC` [Tacrolimus] here?
Its solubility is ≥ 2000 µg/mL.

And the logP [2]?
The logP was > 3.

What about the “Stability in aqueous formulations” value ([3]; 5° C., prior-art aqueous formulations (suspensions)) of the same molecule?
The value was “up to 9 months”.

And the “Stability in aqueous formulations” value ([3]; room temperature, prior-art aqueous formulations (suspensions))?
Its value is “approx. 3 months”.

What about the “Stability in aqueous formulations” value ([3]; room temperature, prior-art aqueous formulations) of the same molecule?
Its value is “approx. 90 days”.
